Among the data in patent US8975417B2, “Pyrazolopyrrolidine derivatives and their use in the treatment of disease” (Novartis AG, priority 2013, dated 2015) are IC (total growth inhibition) values, retold here.

The subject of this test is MV-4-11 cells. Kind of test: Cell growth inhibition assay (CellTiter-Glo), MV-4-11. Particulars: Homo sapiens, MV4-11, read-out: MV-4-11 TGI. It counts as cell-based. The method in brief: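 CTG luminescence (cellular ATP) after compound treatment; values background- and day 0-corrected, vehicle (0.1% DMSO) = 100%, medium only = −100%. Dose range: 3-fold dilutions from 10 μM. IC50/TGI by 4-parameter fit.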
Background: Cellular ATP, detected with luciferase, serves as a proxy for viable cell number.
Take `CCc1nn(CCO)c2c1C(c1ccc(Cl)cc1)N(c1cc(C)c(=O)n(C)c1)C2=O` (stereo not drawn) [Example 78, 4-(4-chlorophenyl)-5-(1,5-dimethyl-6-oxo-1,6-dihydropyridin-3-yl)-3-ethyl-1-(2-hydroxyethyl)-4,5-dihydropyrrolo[3,4-c]pyrazol-6(1H)-one]: the IC (total growth inhibition) is 0.0855 µM.
The value for `CCc1nn(CCO)c2c1C(c1ccc(Cl)cc1)N(c1cc(C)c3onc(C)c3c1)C2=O` (stereo not drawn) [Example 79, 4-(4-chlorophenyl)-5-(3,7-dimethylbenzo[d]isoxazol-5-yl)-3-ethyl-1-(2-hydroxyethyl)-4,5-dihydropyrrolo[3,4-c]pyrazol-6(1H)-one] was 0.42 µM.
For `CCc1c2c(nn1CCO)C(=O)N(c1cc(C)c3onc(C)c3c1)C2c1ccc(Cl)cc1` (stereo not drawn) [Example 80, 4-(4-chlorophenyl)-5-(3,7-dimethylbenzo[d]isoxazol-5-yl)-3-ethyl-2-(2-hydroxyethyl)-4,5-dihydropyrrolo[3,4-c]pyrazol-6(2H)-one], the IC (total growth inhibition) is 0.472 µM.
Under `Cc1ncccc1-n1nc2c(c1C)C(c1ccc(Cl)cc1)N(c1cc(C)c(=O)n(C)c1)C2=O` (stereo not drawn) [Example 81, 4-(4-chlorophenyl)-5-(1,5-dimethyl-6-oxo-1,6-dihydropyridin-3-yl)-3-methyl-2-(2-methylpyridin-3-yl)-4,5-dihydropyrrolo[3,4-c]pyrazol-6(2H)-one] stands 0.13 µM.
Under `Cc1ncccc1-n1nc(C)c2c1C(=O)N(c1cc(C)c(=O)n(C)c1)C2c1ccc(Cl)cc1` (stereo not drawn) [Example 82, 4-(4-chlorophenyl)-5-(1,5-dimethyl-6-oxo-1,6-dihydropyridin-3-yl)-3-methyl-1-(2-methylpyridin-3-yl)-4,5-dihydropyrrolo[3,4-c]pyrazol-6(1H)-one] stands 0.139 µM; under `Cc1nn(-c2cncn2C)c2c1C(c1ccc(Cl)cc1)N(c1cc(C)c(=O)n(C)c1)C2=O` (stereo not drawn) [Example 83, 4-(4-chlorophenyl)-5-(1,5-dimethyl-6-oxo-1,6-dihydropyridin-3-yl)-3-methyl-1-(1-methyl-1H-imidazol-5-yl)-4,5-dihydropyrrolo[3,4-c]pyrazol-6(1H)-one], 0.145 µM; under `CCc1nn(C2CC2)c2c1C(c1ccc(Cl)cc1)N(c1cc(OC)c3nnc(C)n3c1)C2=O` (stereo not drawn) [Example 84, 4-(4-chlorophenyl)-1-cyclopropyl-3-ethyl-5-(8-methoxy-3-methyl-[1,2,4]triazolo[4,3-a]pyridin-6-yl)-4,5-dihydropyrrolo[3,4-c]pyrazol-6(1H)-one], 0.098 µM.
The value for `CCc1nn(CCOC)c2c1C(c1ccc(Cl)cc1)N(c1cc(C)c3nnc(C)n3c1)C2=O` (stereo not drawn) [Example 87, 4-(4-chlorophenyl)-5-(3,8-dimethyl-[1,2,4]triazolo[4,3-a]pyridin-6-yl)-3-ethyl-1-(2-methoxyethyl)-4,5-dihydropyrrolo[3,4-c]pyrazol-6(1H)-one] was 0.0288 µM; that for `CCc1nn(-c2ccnn2C)c2c1C(c1ccc(Cl)cc1)N(c1cc(C)c(=O)n(C)c1)C2=O` (stereo not drawn) [Example 89, 4-(4-chlorophenyl)-5-(1,5-dimethyl-6-oxo-1,6-dihydropyridin-3-yl)-3-ethyl-1-(1-methyl-1H-pyrazol-5-yl)-4,5-dihydropyrrolo[3,4-c]pyrazol-6(1H)-one] was 0.0673 µM.
For the compound `Cc1nn(-c2ccnn2C)c2c1C(c1ccc(Cl)cc1)N(c1cc(C)c3nnc(C)n3c1)C2=O` (stereo not drawn) [Example 90, 4-(4-chlorophenyl)-5-(3,8-dimethyl-[1,2,4]triazolo[4,3-a]pyridin-6-yl)-3-methyl-1-(1-methyl-1H-pyrazol-5-yl)-4,5-dihydropyrrolo[3,4-c]pyrazol-6(1H)-one], the IC (total growth inhibition) is 0.0436 µM.
Under `Cc1cc(N2C(=O)c3nn(C4CC4)c(C)c3C2c2ccc(Cl)cc2)cn2c(C)nnc12` (stereo not drawn) [Example 93, 4-(4-chlorophenyl)-2-cyclopropyl-5-(3,8-dimethyl-[1,2,4]triazolo[4,3-a]pyridin-6-yl)-3-methyl-4,5-dihydropyrrolo[3,4-c]pyrazol-6(2H)-one] stands 0.0226 µM; under `Cc1nn(C2CCC2)c2c1C(c1ccc(Cl)cc1)N(c1cc(C)c(=O)n(C)c1)C2=O` (stereo not drawn) [Example 94, 4-(4-chlorophenyl)-1-cyclobutyl-5-(1,5-dimethyl-6-oxo-1,6-dihydropyridin-3-yl)-3-methyl-4,5-dihydropyrrolo[3,4-c]pyrazol-6(1H)-one], 0.0318 µM; under `Cc1nn(C2CC2)c2c1C(c1ccc(OC(F)(F)F)cc1)N(c1cc(C)c(=O)n(C)c1)C2=O` (stereo not drawn) [Example 95, 1-cyclopropyl-5-(1,5-dimethyl-6-oxo-1,6-dihydropyridin-3-yl)-3-methyl-4-(4-(trifluoromethoxy)phenyl)-4,5-dihydropyrrolo[3,4-c]pyrazol-6(1H)-one], 0.27 µM.
Under `Cc1nn(C2CC2)c2c1C(c1cccc(C(F)(F)F)c1)N(c1cc(C)c(=O)n(C)c1)C2=O` (stereo not drawn) [Example 96, 1-cyclopropyl-5-(1,5-dimethyl-6-oxo-1,6-dihydropyridin-3-yl)-3-methyl-4-(3-(trifluoromethyl)phenyl)-4,5-dihydropyrrolo[3,4-c]pyrazol-6(1H)-one] stands 1.24 µM.
As for `Cc1nn(C2CC2)c2c1C(c1ccc(C(F)(F)F)cc1)N(c1cc(C)c(=O)n(C)c1)C2=O` (stereo not drawn) [Example 97, 1-cyclopropyl-5-(1,5-dimethyl-6-oxo-1,6-dihydropyridin-3-yl)-3-methyl-4-(4-(trifluoromethyl)phenyl)-4,5-dihydropyrrolo[3,4-c]pyrazol-6(1H)-one], the IC (total growth inhibition) came out at 0.12 µM.
Under `COc1ncc(-n2nc(C)c3c2C(=O)N(c2cc(C)c(=O)n(C)c2)[C@H]3c2ccc(Cl)cc2)c(OC)n1` [Example 99, (S)-4-(4-chlorophenyl)-1-(2,4-dimethoxypyrimidin-5-yl)-5-(1,5-dimethyl-6-oxo-1,6-dihydropyridin-3-yl)-3-methyl-4,5-dihydropyrrolo[3,4-c]pyrazol-6(1H)-one] stands 4.31 µM; under `COc1ncc(-n2nc(C)c3c2C(=O)N(c2cc(C)c(=O)n(C)c2)[C@@H]3c2ccc(Cl)cc2)c(OC)n1` [Example 100, (R)-4-(4-chlorophenyl)-1-(2,4-dimethoxypyrimidin-5-yl)-5-(1,5-dimethyl-6-oxo-1,6-dihydropyridin-3-yl)-3-methyl-4,5-dihydropyrrolo[3,4-c]pyrazol-6(1H)-one], 0.0582 µM; under `COc1ncccc1-n1nc(C)c2c1C(=O)N(c1cc(C)c3nnc(C)n3c1)C2c1ccc(Cl)cc1` (stereo not drawn) [Example 101, 4-(4-chlorophenyl)-5-(3,8-dimethyl-[1,2,4]triazolo[4,3-a]pyridin-6-yl)-1-(2-methoxypyridin-3-yl)-3-methyl-4,5-dihydropyrrolo[3,4-c]pyrazol-6(1H)-one], 0.0447 µM.
As for `Cc1nn(C2CC2)c2c1C(c1ccc(Cl)cc1)N(c1ccc3nnn(C)c3n1)C2=O` (stereo not drawn) [Example 102, 4-(4-chlorophenyl)-1-cyclopropyl-3-methyl-5-(3-methyl-3H-[1,2,3]triazolo[4,5-b]-pyridin-5-yl)-4,5-dihydropyrrolo[3,4-c]pyrazol-6(1H)-one], the IC (total growth inhibition) stood at 0.141 µM.
Under `Cc1nn(C(C)C)c2c1[C@H](c1ccc(Cl)cc1)N(c1cc(C)c(=O)n(C)c1)C2=O` [Example 103, (S)-4-(4-chlorophenyl)-5-(1,5-dimethyl-6-oxo-1,6-dihydropyridin-3-yl)-1-isopropyl-3-methyl-4,5-dihydropyrrolo[3,4-c]pyrazol-6(1H)-one] stands 6.54 µM.
As to `Cc1nn(C(C)C)c2c1[C@@H](c1ccc(Cl)cc1)N(c1cc(C)c(=O)n(C)c1)C2=O` [Example 104, (R)-4-(4-chlorophenyl)-5-(1,5-dimethyl-6-oxo-1,6-dihydropyridin-3-yl)-1-isopropyl-3-methyl-4,5-dihydropyrrolo[3,4-c]pyrazol-6(1H)-one], the IC (total growth inhibition) stood at 0.0191 µM.
Under `CCc1nn(C)c2c1C(c1ccc(Cl)cc1)N(c1cc(OC)c3nnc(C)n3c1)C2=O` (stereo not drawn) [Example 105, 4-(4-chlorophenol)-3-ethyl-5-(8-methoxy-3-methyl-[1,2,4]triazolo[4,3-a]pyridin-6-yl)-1-methyl-4,5-dihydropyrrolo[3,4-c]pyrazol-6(1H)-one] stands 0.164 µM.
Consider `CCc1nn(C2CC2)c2c1[C@H](c1ccc(Cl)cc1)N(c1cc(C)c3nnc(C)n3c1)C2=O` [Example 106, (S)-4-(4-chlorophenyl)-1-cyclopropyl-5-(3,8-dimethyl-[1,2,4]triazolo[4,3-a]pyridin-6-yl)-3-ethyl-4,5-dihydropyrrolo[3,4-c]pyrazol-6(1H)-one], for which the IC (total growth inhibition) was found to be 1.48 µM.
Under `CCc1nn(C2CC2)c2c1[C@@H](c1ccc(Cl)cc1)N(c1cc(C)c3nnc(C)n3c1)C2=O` [Example 107, (R)-4-(4-chlorophenyl)-1-cyclopropyl-5-(3,8-dimethyl-[1,2,4]triazolo[4,3-a]pyridin-6-yl)-3-ethyl-4,5-dihydropyrrolo[3,4-c]pyrazol-6(1H)-one] stands 0.0113 µM; under `CCc1nn(CCOCC(F)(F)F)c2c1C(c1ccc(Cl)cc1)N(c1cc(OC)c3nnc(C)n3c1)C2=O` (stereo not drawn) [Example 108, 4-(4-chlorophenyl)-3-ethyl-5-(8-methoxy-3-methyl-[1,2,4]triazolo[4,3-a]pyridin-6-yl)-1-(2-(2,2,2-trifluoroethoxy)ethyl)-4,5-dihydropyrrolo[3,4-c]pyrazol-6(1H)-one], 0.445 µM.
`COc1ncccc1-n1nc(C)c2c1C(=O)N(c1cc(C)c3nnn(C)c3n1)C2c1ccc(Cl)cc1` (stereo not drawn) [Example 109, 4-(4-chlorophenyl)-5-(3,7-dimethyl-3H-[1,2,3]triazolo[4,5-b]pyridin-5-yl)-1-(2-methoxypyridin-3-yl)-3-methyl-4,5-dihydropyrrolo[3,4-c]pyrazol-6(1H)-one]: the IC (total growth inhibition) was 0.0381 µM.
Under `Cc1nn(C2CC2)c2c1C(c1ccc(Cl)cc1)N(c1cc(C)c3nnn(C)c3n1)C2=O` (stereo not drawn) [Example 110, 4-(4-chlorophenyl)-1-cyclopropyl-5-(3,7-dimethyl-3H-[1,2,3]triazolo[4,5-b]pyridin-5-yl)-3-methyl-4,5-dihydropyrrolo[3,4-c]pyrazol-6(1H)-one] stands 0.0102 µM.
